# Source: patent EP1561465A2, “Methods of use of fluoroquinolone compounds against bacteria” (LG Life Sciences, Ltd., priority 1999, dated 2001)
# Like-named read-outs stand apart in the source and are kept apart here.
# Experiments:
# Format in all cases: cell-based
# [1] = test system: Proteus mirabilis; assay: MIC by NCCLS broth microdilution, 1100 Japanese clinical isolates 1997-1998; conditions: Proteus mirabilis (n=30)
# [2] = test system: Klebsiella pneumoniae; assay: as above; conditions: Klebsiella pneumoniae (n=35)
# [3] = test system: E. coli; assay: microbe, parasite or virus in culture; conditions: Escherichia coli
# [4] = test system: Enterobacter aerogenes; assay: MIC by NCCLS broth microdilution, 1100 Japanese clinical isolates 1997-1998; conditions: Enterobacter aerogenes (n=35)
# [5] = test system: Staphylococcus aureus; assay: as above; conditions: for MIC: Staphylococcus aureus quinolone resistant
# [6] = test system: Streptococcus pneumoniae; assay: MIC by two-fold serial agar dilution, Sensitivity Disk agar-N (Kitasato isolates); conditions: for MIC90: read-out: MIC90; for MIC: read-out: MIC Range
# [7] = test system: Streptococcus pneumoniae; assay: MIC by NCCLS reference broth microdilution, 450 respiratory tract pathogens; conditions: Streptococcus pneumoniae
# [8] = test system: Serratia marcescens; assay: MIC by NCCLS broth microdilution, 1100 Japanese clinical isolates 1997-1998; conditions: Serratia marcescens (n=30)
# [9] = test system: Enterococcus faecalis; assay: as above; conditions: for MIC50 / MIC90: Enterococcus faecalis; for MIC90: read-out: MIC90
# [10] = Staphylococcus aureus oxacillin susceptible (n=41)
# [11] = Staphylococcus aureus, Staphylococcus aureus oxacillin resistant (n=57)
# [12] = Streptococcus pneumoniae (n = 100)
# [13] = erythromycin resistant M phenotype (n = 16)
# [14] = erythromycin resistant MLSB phenotype (n = 16)
# [15] = penicillin intermediate (n = 16)
# [16] = penicillin susceptible (n = 20)
# [17] = Enterococcus faecalis ciprofloxacin resistant (n=15)
# [18] = Enterococcus faecalis ciprofloxacin susceptible (n=24)
compound,measurement,setting,value
"C[C@@H]1CN(c2c(F)c(N)c3c(=O)c(C(=O)O)cn(C4CC4)c3c2F)C[C@H](C)N1 [Sparfloxacin, sparfloxacin]",MIC Range,[1],0.063 to 16 µg/mL
same,MIC50,[1]; read-out: MIC50,0.25 µg/mL
same,MIC90,[1]; read-out: MIC90,0.5 µg/mL
same,MIC50,[2],0.032 µg/mL
same,MIC Range,[2],0.016 to 2 µg/mL
same,MIC90,[2]; read-out: MIC90,0.063 µg/mL
same,MIC50,"[3]; E. coli (13 strains), quinolone-resistant, read-out: MIC50",0.125 µg/mL
same,MIC90,"[3]; E. coli (13 strains), quinolone-resistant, read-out: MIC90",0.5 µg/mL
same,MIC,"[3]; E. coli KU1029, mutant type SP (spontaneous mutant in the DNA gyrase)",0.031 µg/mL
same,MIC,"[3]; E. coli KU1030, mutant type SP",0.063 µg/mL
same,MIC,"[3]; E. coli KU1031, mutant type SP",0.031 µg/mL
same,MIC,"[3]; E. coli KU1032, mutant type SP",0.125 µg/mL
same,MIC,"[3]; E. coli KU1033, mutant type SP",0.031 µg/mL
same,MIC,"[3]; E. coli KU1034, mutant type GA (DNA gyrase A)",0.5 µg/mL
same,MIC,"[3]; E. coli KU1035, mutant type GA (DNA gyrase A)",0.5 µg/mL
same,MIC,"[3]; E. coli KU1036, mutant type GB (DNA gyrase B)",0.063 µg/mL
same,MIC,"[3]; E. coli KU1038, mutant type SP",0.031 µg/mL
same,MIC,"[3]; E. coli KU1039, mutant type SP",0.25 µg/mL
same,MIC,"[3]; E. coli KU1040, mutant type SP",≤ 0.008 µg/mL
same,MIC,"[3]; E. coli KU1041, mutant type SP",0.25 µg/mL
same,MIC,"[3]; E. coli KU1042, mutant type SP",0.063 µg/mL
same,MIC Range,[4],0.016 to 0.25 µg/mL
same,MIC50,[4]; Klebsiella aerogenes,0.032 µg/mL
same,MIC90,[4]; Klebsiella aerogenes,0.063 µg/mL
same,MIC Range,[5]; Staphylococcus aureus oxacillin resistant (n=57),0.032 to 128 µg/mL
same,MIC90,[5]; [10],0.125 µg/mL
same,MIC Range,[5]; [10],0.032 to 1 µg/mL
same,MIC50,[5]; [11],4 µg/mL
same,MIC90,[5]; [11],32 µg/mL
same,MIC50,"[5]; Staphylococcus aureus, Staphylococcus aureus oxacillin susceptible (n=41)",0.063 µg/mL
same,MIC,"[5]; Staphylococcus aureus, strain TMS1* (spontaneous mutant resistant to ciprofloxacin)",0.125 µg/mL
same,MIC,"[5]; Staphylococcus aureus, strain TMS3, read-out: MIC",128 µg/mL
same,MIC,"[5]; Staphylococcus aureus, strain TMS4, read-out: MIC",8 µg/mL
same,MIC,"[5]; Staphylococcus aureus, strain TMS5, read-out: MIC",8 µg/mL
same,MIC,"[5]; Staphylococcus aureus, strain TMS6, read-out: MIC",2 µg/mL
same,MIC50,[6]; Ciprofloxacin-susceptible (94),0.125 µg/mL
same,MIC Range,[6]; Minocycline-resistant (37),0.125 to 8 µg/mL
same,MIC50,[6]; Streptococcus pneumoniae,0.125 µg/mL
same,MIC90,"[6]; Streptococcus pneumoniae, 18 h, Ciprofloxacin-resistant (21), ciprofloxacin MIC ≥8 µg/ml",8 µg/mL
same,MIC,"[6]; Streptococcus pneumoniae, 18 h, Ciprofloxacin-resistant (21)",0.25 to 8 µg/mL
same,MIC,"[6]; Streptococcus pneumoniae, 18 h, Ciprofloxacin-susceptible (94)",0.063 to 0.5 µg/mL
same,MIC,"[6]; Streptococcus pneumoniae, 18 h, Penicillin-resistant (19)",0.063 to 1 µg/mL
same,MIC,"[6]; Streptococcus pneumoniae, 18 h",0.125 to 8 µg/mL
same,MIC50,"[6]; Streptococcus pneumoniae, Ciprofloxacin-resistant (21), read-out: MIC50",4 µg/mL
same,MIC90,"[6]; Streptococcus pneumoniae, Ciprofloxacin-susceptible (94)",0.25 µg/mL
same,MIC50,"[6]; Streptococcus pneumoniae, Erythromycin-resistant (37), read-out: MIC50",0.25 µg/mL
same,MIC90,"[6]; Streptococcus pneumoniae, Erythromycin-resistant (37)",0.5 µg/mL
same,MIC50,"[6]; Streptococcus pneumoniae, Minocycline-resistant (37), read-out: MIC50",0.25 µg/mL
same,MIC90,"[6]; Streptococcus pneumoniae, Minocycline-resistant (37)",0.5 µg/mL
same,MIC90,"[6]; Streptococcus pneumoniae, Penicillin-resistant (19)",0.5 µg/mL
same,MIC,[7]; [12],0.12 to 1 µg/mL
same,MIC50,[7]; [12],0.5 µg/mL
same,MIC90,[7]; [12],0.5 µg/mL
same,MIC,[7]; [13],0.25 µg/mL
same,MIC50,[7]; [13],0.25 µg/mL
same,MIC90,[7]; [13],0.25 µg/mL
same,MIC,[7]; [14],0.12 to 0.5 µg/mL
same,MIC50,[7]; [14],0.25 µg/mL
same,MIC90,[7]; [14],0.25 µg/mL
same,MIC,[7]; multi-drug resistant (n = 16),0.12 to 0.5 µg/mL
same,MIC50,[7]; multi-drug resistant (n = 16),0.5 µg/mL
same,MIC90,[7]; multi-drug resistant (n = 16),0.5 µg/mL
same,MIC,[7]; [15],0.5 to 1 µg/mL
same,MIC50,[7]; [15],0.5 µg/mL
same,MIC90,[7]; [15],0.5 µg/mL
same,MIC,[7]; penicillin resistant (n = 18),0.25 to 1 µg/mL
same,MIC50,[7]; penicillin resistant (n = 18),0.5 µg/mL
same,MIC90,[7]; penicillin resistant (n = 18),1 µg/mL
same,MIC,[7]; [16],0.12 to 0.5 µg/mL
same,MIC50,[7]; [16],0.25 µg/mL
same,MIC90,[7]; [16],0.25 µg/mL
same,MIC90,[8],2 µg/mL
same,MIC Range,[8],0.063 to 64 µg/mL
same,MIC50,[8]; read-out: MIC50,0.25 µg/mL
same,MIC Range,[9]; [17],0.5 to 64 µg/mL
same,MIC Range,[9]; [18],0.5 to 1 µg/mL
same,MIC50,[9]; [17],16 µg/mL
same,MIC90,[9]; [17],64 µg/mL
same,MIC50,[9]; [18],0.5 µg/mL
same,MIC90,[9]; [18],1 µg/mL
